Laboratory results taken from publication PMC5218480 (PLoS ONE, 2017).

Tested on: MV-4-11 cells
Assay: Gene expression microarray analysis (Affymetrix PrimeView) and GSEA
Assay type: cell-based, human
Set-up: RFU PODN (11730768_x_at) / Fold change /veh PODN (11730768_x_at) / RFU LINC00158 (11744669_a_at) / Fold change /veh LINC00158 (11744669_a_at) / RFU DUSP10 (11751237_a_at) / Fold change /veh DUSP10 (11751237_a_at) / RFU ID3 (11757404_x_at) / Fold change /veh ID3 (11757404_x_at) / RFU PLEKHG5 (11737974_s_at) / Fold change /veh PLEKHG5 (11737974_s_at) / RFU LRRC4B (11730491_at) / Fold change /veh LRRC4B (11730491_at) / RFU GIMAP4 (11747438_a_at) / Fold change /veh GIMAP4 (11747438_a_at) / RFU KRT8 (11758183_x_at) / Fold change /veh KRT8 (11758183_x_at) / RFU CNN1 (11734310_a_at) / Fold change /veh CNN1 (11734310_a_at) / RFU VPS37D (11726825_at) / Fold change /veh VPS37D (11726825_at) / RFU C10orf10 (11716522_x_at) / Fold change /veh C10orf10 (11716522_x_at) / RFU KIR2DL2 /// KIR2DL4 /// KIR2DL5A /// KIR2DL5B /// KIR2DS1 /// KIR2DS2 /// KIR2DS3 /// KIR2DS4 /// KIR3DL3 /// KIR3DL3 /// KIR3DS1 (11738374_at) / Fold change /veh KIR2DL2 /// KIR2DL4 /// KIR2DL5A /// KIR2DL5B /// KIR2DS1 /// KIR2DS2 /// KIR2DS3 /// KIR2DS4 /// KIR3DL3 /// KIR3DL3 /// KIR3DS1 (11738374_at) / RFU C1QL1 (11718748_at) / Fold change /veh C1QL1 (11718748_at) / RFU TMPRSS4 (11747572_a_at) / Fold change /veh TMPRSS4 (11747572_a_at) / RFU HAMP (11756126_x_at) / Fold change /veh HAMP (11756126_x_at) / RFU RNFT2 (11725882_a_at) / Fold change /veh RNFT2 (11725882_a_at) / RFU NR4A2 (11747474_a_at) / Fold change /veh NR4A2 (11747474_a_at) / RFU ABCC12 (11746883_a_at) / Fold change /veh ABCC12 (11746883_a_at) / RFU TMEM136 (11760407_x_at) / Fold change /veh TMEM136 (11760407_x_at) / RFU CLDN22 /// WWC2 (11732394_at) / Fold change /veh CLDN22 /// WWC2 (11732394_at) / RFU HLA-DPB1 (11760878_x_at) / Fold change /veh HLA-DPB1 (11760878_x_at) / RFU SPINT1 (11716480_a_at) / Fold change /veh SPINT1 (11716480_a_at) / RFU GAP43 (11754022_s_at) / Fold change /veh GAP43 (11754022_s_at) / RFU A4GNT (11735810_at) / Fold change /veh A4GNT (11735810_at) / RFU PRB3 (11715151_x_at) / Fold change /veh PRB3 (11715151_x_at) / RFU TUBB4B (11761932_at) / Fold change /veh TUBB4B (11761932_at) / RFU CAPN14 (11732068_a_at) / Fold change /veh CAPN14 (11732068_a_at) / RFU TMCC2 (11721928_a_at) / Fold change /veh TMCC2 (11721928_a_at) / RFU IRGQ (11745062_a_at) / Fold change /veh IRGQ (11745062_a_at) / RFU FAM174B (11720279_a_at) / Fold change /veh FAM174B (11720279_a_at) / RFU TMPRSS4 (11748680_a_at) / Fold change /veh TMPRSS4 (11748680_a_at) / RFU FAM212B (11763350_a_at) / Fold change /veh FAM212B (11763350_a_at) / RFU PLEKHG5 (11743358_a_at) / Fold change /veh PLEKHG5 (11743358_a_at) / RFU ZSCAN30 (11745921_a_at) / Fold change /veh ZSCAN30 (11745921_a_at) / RFU CMKLR1 (11741424_a_at) / Fold change /veh CMKLR1 (11741424_a_at) / RFU LOC101060620 /// MAPK8IP1 (11723275_at) / Fold change /veh LOC101060620 /// MAPK8IP1 (11723275_at) / RFU SPTSSB (11747773_x_at) / Fold change /veh SPTSSB (11747773_x_at) / RFU PRSS12 (11739890_at) / Fold change /veh PRSS12 (11739890_at) / RFU BIN1 (11741810_x_at) / Fold change /veh BIN1 (11741810_x_at) / RFU WNT11 (11732464_a_at) / Fold change /veh WNT11 (11732464_a_at) / RFU C10orf10 (11716521_a_at) / Fold change /veh C10orf10 (11716521_a_at) / RFU C5orf56 (11738089_at) / Fold change /veh C5orf56 (11738089_at) / RFU CYB561 (11721691_x_at) / Fold change /veh CYB561 (11721691_x_at) / RFU ANKRD19P (11752326_a_at) / Fold change /veh ANKRD19P (11752326_a_at) / RFU OR2T12 /// OR2T33 /// OR2T8 (11738714_s_at) / Fold change /veh OR2T12 /// OR2T33 /// OR2T8 (11738714_s_at) / RFU VCAN (11748164_a_at) / Fold change /veh VCAN (11748164_a_at) / RFU JSRP1 (11732532_at) / Fold change /veh JSRP1 (11732532_at) / RFU KRTAP10-11 (11738290_x_at) / Fold change /veh KRTAP10-11 (11738290_x_at) / RFU MYO3A (11730013_a_at) / Fold change /veh MYO3A (11730013_a_at) / RFU EBF3 (11725865_a_at) / Fold change /veh EBF3 (11725865_a_at) / RFU CAMK2N1 (11719241_x_at) / Fold change /veh CAMK2N1 (11719241_x_at) / RFU C5orf56 (11738088_a_at) / Fold change /veh C5orf56 (11738088_a_at) / RFU OLFML3 (11715873_a_at) / Fold change /veh OLFML3 (11715873_a_at) / RFU LOC100653217 /// NTM (11731650_a_at) / Fold change /veh LOC100653217 /// NTM (11731650_a_at) / RFU MAPK11 (11762145_a_at) / Fold change /veh MAPK11 (11762145_a_at) / RFU FIZ1 (11724087_x_at) / Fold change /veh FIZ1 (11724087_x_at) / RFU OASL (11726364_x_at) / Fold change /veh OASL (11726364_x_at) / RFU SOX15 (11748057_x_at) / Fold change /veh SOX15 (11748057_x_at) / RFU CD79A (11719716_a_at) / Fold change /veh CD79A (11719716_a_at) / RFU HIST1H1D (11736915_at) / Fold change /veh HIST1H1D (11736915_at) / RFU CASKIN2 (11723855_a_at) / Fold change /veh CASKIN2 (11723855_a_at) / RFU LOC730098 (11760151_x_at) / Fold change /veh LOC730098 (11760151_x_at) / RFU OR4N2 (11742367_at) / Fold change /veh OR4N2 (11742367_at) / RFU PRRT2 (11749266_a_at) / Fold change /veh PRRT2 (11749266_a_at) / RFU SNX32 (11753110_a_at) / Fold change /veh SNX32 (11753110_a_at) / RFU CDHR5 (11726645_a_at) / Fold change /veh CDHR5 (11726645_a_at) / RFU RCAN1 (11760418_a_at) / Fold change /veh RCAN1 (11760418_a_at) / RFU FAM167A (11723789_a_at) / Fold change /veh FAM167A (11723789_a_at) / RFU FAM26E (11764081_at) / Fold change /veh FAM26E (11764081_at) / RFU ISYNA1 (11749810_s_at) / Fold change /veh ISYNA1 (11749810_s_at) / RFU ACY1 (11761880_at) / Fold change /veh ACY1 (11761880_at) / RFU 11764098_at / Fold change /veh 11764098_at / RFU SAMD14 (11745864_x_at) / Fold change /veh SAMD14 (11745864_x_at) / RFU NPB (11741838_a_at) / Fold change /veh NPB (11741838_a_at) / RFU TMPRSS6 (11731388_a_at) / Fold change /veh TMPRSS6 (11731388_a_at) / RFU KRTAP10-2 (11738614_at) / Fold change /veh KRTAP10-2 (11738614_at) / RFU ARHGAP8 /// PRR5-ARHGAP8 (11727945_x_at) / Fold change /veh ARHGAP8 /// PRR5-ARHGAP8 (11727945_x_at) / RFU KRTAP5-7 /// NADSYN1 (11734609_at) / Fold change /veh KRTAP5-7 /// NADSYN1 (11734609_at) / RFU RASL12 (11751679_a_at) / Fold change /veh RASL12 (11751679_a_at) / RFU CDKN2B (11736163_a_at) / Fold change /veh CDKN2B (11736163_a_at) / RFU PRF1 (11729649_at) / Fold change /veh PRF1 (11729649_at) / RFU, ZNF638 /// ZNF638-IT1 / Fold change vs veh, ZNF638 /// ZNF638-IT1 / RFU, PANK3 / Fold change vs veh, PANK3 / RFU, SH3YL1 / Fold change vs veh, SH3YL1 / RFU, ZEB2 / Fold change vs veh, ZEB2 / RFU, NRIP1 / Fold change vs veh, NRIP1 / RFU, PTTG1IP / Fold change vs veh, PTTG1IP / RFU, CAPN2 / Fold change vs veh, CAPN2 / RFU, MED14 / Fold change vs veh, MED14 / RFU, SNORA58 / Fold change vs veh, SNORA58 / RFU, C1orf63 / Fold change vs veh, C1orf63 / RFU, LRRFIP1 / Fold change vs veh, LRRFIP1 / RFU, NDUFAF7 / Fold change vs veh, NDUFAF7 / RFU, SLC12A2 / Fold change vs veh, SLC12A2 / RFU, IBTK / Fold change vs veh, IBTK / RFU, ESF1 / Fold change vs veh, ESF1 / Fold change vs veh, TMEM50B / RFU, TAOK1 / Fold change vs veh, TAOK1 / RFU, ACBD3 / Fold change vs veh, ACBD3 / RFU, TMA16 / Fold change vs veh, TMA16 / RFU, RWDD3 / Fold change vs veh, RWDD3 / RFU, BCAT1 / Fold change vs veh, BCAT1 / RFU, EDEM3 / Fold change vs veh, EDEM3 / RFU, TMEM33 / Fold change vs veh, TMEM33 / RFU, WDR75 / Fold change vs veh, WDR75 / RFU, AHCTF1 / Fold change vs veh, AHCTF1 / RFU, TFRC / Fold change vs veh, TFRC / RFU, ZDHHC17 / Fold change vs veh, ZDHHC17 / RFU, NOM1 / Fold change vs veh, NOM1 / RFU, ARL8B / Fold change vs veh, ARL8B / RFU, ZBTB11 / Fold change vs veh, ZBTB11 / RFU, TAMM41 / Fold change vs veh, TAMM41 / RFU, KIAA1704 /// LOC100996395 / Fold change vs veh, KIAA1704 /// LOC100996395 / RFU, ING1 / Fold change vs veh, ING1 / RFU, TRMT61B / Fold change vs veh, TRMT61B / RFU, FUBP3 / Fold change vs veh, FUBP3 / RFU, TP53 / Fold change vs veh, TP53 / RFU, TNKS2 / Fold change vs veh, TNKS2 / RFU, ZFP14 / Fold change vs veh, ZFP14 / RFU, ACTR2 / Fold change vs veh, ACTR2 / RFU, PPP3R1 / Fold change vs veh, PPP3R1 / RFU, PIK3R1 / Fold change vs veh, PIK3R1 / RFU, HNRNPA1 / Fold change vs veh, HNRNPA1 / RFU, RNF170 / Fold change vs veh, RNF170 / RFU, ZNF28 / Fold change vs veh, ZNF28 / RFU, RNGTT / Fold change vs veh, RNGTT / RFU, OGT / Fold change vs veh, OGT / RFU, BRD1 / Fold change vs veh, BRD1 / RFU, MARS / Fold change vs veh, MARS / RFU, ZNF655 / Fold change vs veh, ZNF655 / RFU, FAHD1 / Fold change vs veh, FAHD1 / RFU, BDP1 / Fold change vs veh, BDP1 / RFU, LRRCC1 / Fold change vs veh, LRRCC1 / RFU, ARID1A / Fold change vs veh, ARID1A / RFU, ZNF146 / Fold change vs veh, ZNF146 / RFU, ZNF330 / Fold change vs veh, ZNF330 / RFU, GPN3 / Fold change vs veh, GPN3 / RFU, C9orf123 / Fold change vs veh, C9orf123 / RFU, N4BP2L2 / Fold change vs veh, N4BP2L2 / RFU, ARFIP1 / Fold change vs veh, ARFIP1 / RFU, FAM179B / Fold change vs veh, FAM179B / RFU, BCL10 / Fold change vs veh, BCL10 / RFU, UHRF1BP1L / Fold change vs veh, UHRF1BP1L / RFU, BET1 / Fold change vs veh, BET1 / RFU, CNOT2 / Fold change vs veh, CNOT2 / RFU, ZNF268 / Fold change vs veh, ZNF268 / Fold change vs veh, ZNF507 / RFU, DGCR2 / Fold change vs veh, DGCR2 / RFU, WDSUB1 / Fold change vs veh, WDSUB1 / Fold change vs veh, HSP90B1 /// MIR3652 / RFU, ADSS / Fold change vs veh, ADSS / RFU, GK / Fold change vs veh, GK / RFU, ZNF148 / Fold change vs veh, ZNF148 / RFU, TAF9 / Fold change vs veh, TAF9 / RFU, SLC1A5 / Fold change vs veh, SLC1A5 / RFU, SLMO2 / Fold change vs veh, SLMO2 / RFU, ABCC4 / Fold change vs veh, ABCC4 / RFU, LOC101060439 /// RAP1B / Fold change vs veh, LOC101060439 /// RAP1B / RFU, RFX7 / Fold change vs veh, RFX7 / RFU, GTPBP10 / Fold change vs veh, GTPBP10 / RFU, CNEP1R1 / Fold change vs veh, CNEP1R1 / RFU, BIVM-ERCC5 /// ERCC5 / Fold change vs veh, BIVM-ERCC5 /// ERCC5 / RFU, ILF3 / Fold change vs veh, ILF3 / RFU 11762660_at / Fold change /veh 11762660_at / RFU VCAN (11757783_s_at) / Fold change /veh VCAN (11757783_s_at) / RFU DDX43 (11728927_at) / Fold change /veh DDX43 (11728927_at) / RFU KRT8 (11758188_x_at) / Fold change /veh KRT8 (11758188_x_at) / RFU NKD1 (11759106_at) / Fold change /veh NKD1 (11759106_at) / RFU SRD5A1 (11742802_a_at) / Fold change /veh SRD5A1 (11742802_a_at) / RFU TPSAB1 /// TPSB2 (11721975_s_at) / Fold change /veh TPSAB1 /// TPSB2 (11721975_s_at) / RFU GSTM3 (11746129_a_at) / Fold change /veh GSTM3 (11746129_a_at) / RFU IL23R (11737362_x_at) / Fold change /veh IL23R (11737362_x_at) / RFU TMEM51 (11727254_a_at) / Fold change /veh TMEM51 (11727254_a_at) / RFU PIWIL2 (11732686_x_at) / Fold change /veh PIWIL2 (11732686_x_at) / RFU ORM1 (11744905_x_at) / Fold change /veh ORM1 (11744905_x_at) / RFU CCDC152 (11743942_at) / Fold change /veh CCDC152 (11743942_at) / RFU ECM1 (11717891_a_at) / Fold change /veh ECM1 (11717891_a_at) / RFU IL23R (11748794_a_at) / Fold change /veh IL23R (11748794_a_at) / RFU TNFAIP8L3 (11732012_x_at) / Fold change /veh TNFAIP8L3 (11732012_x_at) / RFU MBOAT4 (11741988_at) / Fold change /veh MBOAT4 (11741988_at) / RFU 11764193_at / Fold change /veh 11764193_at / RFU TMEM53 (11763286_at) / Fold change /veh TMEM53 (11763286_at) / RFU MAGEB2 (11727129_at) / Fold change /veh MAGEB2 (11727129_at) / RFU TMEM200A (11744735_a_at) / Fold change /veh TMEM200A (11744735_a_at) / RFU CCDC152 (11751479_a_at) / Fold change /veh CCDC152 (11751479_a_at) / RFU FAM211A (11726209_a_at) / Fold change /veh FAM211A (11726209_a_at) / RFU RGS16 (11746705_a_at) / Fold change /veh RGS16 (11746705_a_at) / RFU VCAN (11755009_s_at) / Fold change /veh VCAN (11755009_s_at) / RFU RHOB (11743442_s_at) / Fold change /veh RHOB (11743442_s_at) / RFU RGS16 (11720943_a_at) / Fold change /veh RGS16 (11720943_a_at) / RFU RGS16 (11720944_at) / Fold change /veh RGS16 (11720944_at) / RFU, VPS4B / Fold change vs veh, VPS4B / RFU, CREB1 / Fold change vs veh, CREB1 / RFU, DNAJC13 / Fold change vs veh, DNAJC13 / RFU, GNAQ / Fold change vs veh, GNAQ / RFU, CDK5R1 / Fold change vs veh, CDK5R1 / RFU, ZRANB3 / Fold change vs veh, ZRANB3 / RFU, CUL4A / Fold change vs veh, CUL4A / RFU, CCNY / Fold change vs veh, CCNY / RFU, UFL1 / Fold change vs veh, UFL1 / RFU, COG3 / Fold change vs veh, COG3 / RFU, DIAPH2 / Fold change vs veh, DIAPH2 / RFU, SKA2 / Fold change vs veh, SKA2 / RFU, AFF3 / Fold change vs veh, AFF3 / RFU, LMF1 / Fold change vs veh, LMF1 / RFU, IPO11 / Fold change vs veh, IPO11 / RFU, DFFB / Fold change vs veh, DFFB / RFU, FOXP1 / Fold change vs veh, FOXP1 / RFU, CARD8 / Fold change vs veh, CARD8 / RFU, STRN3 / Fold change vs veh, STRN3 / RFU, ADK / Fold change vs veh, ADK / RFU, RASSF2 / Fold change vs veh, RASSF2 / RFU, WIPF1 / Fold change vs veh, WIPF1 / RFU, LARP1B / Fold change vs veh, LARP1B / RFU, RASA1 / Fold change vs veh, RASA1 / RFU, RB1 / Fold change vs veh, RB1 / RFU, PPFIA1 / Fold change vs veh, PPFIA1 / RFU, MAT2A / Fold change vs veh, MAT2A / RFU, CCT5 / Fold change vs veh, CCT5 / RFU, WDR92 / Fold change vs veh, WDR92 / RFU, CUX1 / Fold change vs veh, CUX1 / RFU, TTC7A / Fold change vs veh, TTC7A / RFU, TMEM135 / Fold change vs veh, TMEM135 / RFU, DEPTOR / Fold change vs veh, DEPTOR / RFU, CPM / Fold change vs veh, CPM / RFU, DNAJB6 / Fold change vs veh, DNAJB6 / RFU, CACNA2D3 / Fold change vs veh, CACNA2D3 / RFU, DTX4 / Fold change vs veh, DTX4 / RFU, TFCP2 / Fold change vs veh, TFCP2 / RFU, GMCL1 /// GMCL1P1 / Fold change vs veh, GMCL1 /// GMCL1P1 / RFU, AEBP2 / Fold change vs veh, AEBP2 / RFU, SNHG1 /// SNORD22 /// SNORD25 /// SNORD26 /// SNORD27 /// SNORD28 /// SNORD29 /// SNORD31 / Fold change vs veh, SNHG1 /// SNORD22 /// SNORD25 /// SNORD26 /// SNORD27 /// SNORD28 /// SNORD29 /// SNORD31 / Fold change (Aza/veh), C12orf56 (ProbeSet 11735607_a_at) / Fold change (ACY-1035/veh), C12orf56 (ProbeSet 11735607_a_at) / Fold change (Aza/veh), FGFR1OP (ProbeSet 11751329_s_at) / Fold change (ACY-1035/veh), FGFR1OP (ProbeSet 11751329_s_at) / Fold change (Aza/veh), VPS36 (ProbeSet 11739960_a_at) / Fold change (ACY-1035/veh), VPS36 (ProbeSet 11739960_a_at) / RFU SYPL1 (11715823_x_at) / Fold change /veh SYPL1 (11715823_x_at) / RFU IGFBP7 (11715501_s_at) / Fold change /veh IGFBP7 (11715501_s_at) / RFU REEP3 (11722064_at) / Fold change /veh REEP3 (11722064_at) / RFU IGLL1 (11728026_x_at) / Fold change /veh IGLL1 (11728026_x_at): dose or concentration left out as unconfirmed
Conditions: MV-4-11 cells, 48 hours

Nc1ncn([C@@H]2O[C@H](CO)[C@@H](O)[C@H]2O)c(=O)n1 [azacitidine]
Fold change /veh VCAN (11757783_s_at): 1.30
